# Source: publication PMC5515969, “Effects of 31 FDA approved small-molecule kinase inhibitors on isolated rat liver mitochondria” (Archives of Toxicology, 2016)
# Like-named read-outs stand apart in the source and are kept apart here.
# How the values were obtained:
# [1] = tested on: isolated rat liver mitochondria; experiment: Mitochondrial oxygen consumption (glutamate/malate or succinate driven, state 4 and state 3); format: biochemical; conditions: DMSO treated samples set as 1; as to State 3 respiration driven by succinate at 10XCmax: key: 0 indicates that the drug had no effects (negative); as to State 3 respiration driven by succinate at 1XCmax: key: 0 indicates that the drug had no effects (negative)
# Outline: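 Oxygen uptake on glutamate/malate or on succinate defined state 4; ADP added 3 min later gave state 3. Mitochondria isolated from rat liver by differential centrifugation, adjusted to 1 mg/ml and pretreated 5 min with inhibitor (0.1% DMSO final). Values relative to DMSO control, set to 1.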
# RCC I = RCC I activity in submitochondrial particles; format: biochemical, rat; set-up: key to RCC I at 10XCmax / RCC I at 100XCmax / RCC I at 50XCmax / RCC I at 30XCmax / RCC I at 20XCmax: activity relative to DMSO-treated controls (control set as 1 = 100%); conditions: for RCC I at 10XCmax: DMSO treated samples set as 1
# Outline: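 First, submitochondrial particles (1 mg/ml) are incubated with inhibitor for 15 min. Next, complex activities are followed spectrophotometrically, with RCC I taken as the difference between buffers lacking and containing rotenone. Finally, activities are expressed relative to DMSO controls set at 1.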
# RCC II = target: T1, RCC II (Rattus norvegicus, UniProt P21913+Q641Z9+Q6PCT8+Q920L2); experiment: RCC II activity in submitochondrial particles; format: biochemical; set-up: key: activity relative to DMSO-treated controls (control set as 1 = 100%); conditions: DMSO treated samples set as 1
# T1 construct: Submitochondrial particles were prepared by subjecting the intact mitochondria to three successive freeze–thaw cycles; from tissue; host or cells: rat liver mitochondria, used as submitochondrial particles
# Outline: (§1)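 Abs 340 nm (I/V) or 600 nm (II), 1-min reads × 6 min; 550 nm (III, IV), 10-s reads × 2 min. RCC I = rotenone-free minus rotenone rate. DMSO control = 1.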
# RCC III = RCC III activity in submitochondrial particles; format: biochemical, rat; set-up: key to RCC III at 100XCmax: activity relative to DMSO-treated controls (control set as 1 = 100%)
# Outline: as §1
# RCC IV = RCC IV activity in submitochondrial particles; format: biochemical, rat; set-up: key to RCC IV at 50XCmax / RCC IV at 100XCmax: activity relative to DMSO-treated controls (control set as 1 = 100%)
# Outline: as §1
# RCC V = RCC V activity in submitochondrial particles; format: biochemical, rat; as to RCC V at 5XCmax: key: 0 indicates that the drug had no effects (negative)
# Outline: as §1
# [2] = tested on: isolated rat liver mitochondria; experiment: Mitochondrial inner membrane potential (MMP), Rhodamine 123; format: biochemical; conditions: difference in signal between KI and DMSO treated samples at the end of experiments
# Source text: Fig. 3 KI effects on mitochondrial inner membrane potential (MMP). […] In a, c, data are means and standard derivations from three separate experiments. *p < 0.05 as compared to DMSO-treated samples at the end of experiments. In b, data are means of two independent experiments
# [3] = tested on: isolated rat liver mitochondria; experiment: Mitochondrial swelling (absorbance at 535 nm); format: biochemical; conditions: difference in signal between KI and DMSO treated samples at the end of experiments; as to Swelling 5XCmax: key: 0 indicates that the drug had no effects (negative)
# [4] = Solubility of DMSO stock for 100X/50X Cmax testing; format: physicochemical
# Source text: Supplement 204_2016_1918_MOESM3_ESM.xlsx, sheet "Sheet1" | column: 100 Cmax; 50 Cmax; note
# [5] = tested on: isolated rat liver mitochondria; conditions: positive control alamethicin treated samples
# [6] = cited from earlier work
# [7] = tested on: isolated rat liver mitochondria; experiment: Mitochondrial ROS production (CM-H2DCFDA); conditions: DMSO treated samples set as 1
# [8] = in vivo; cited from earlier work
# [9] = 20-fold Cmax, 15 min, DMSO-treated = 100
# T1 sequence (Q920L2 35-656): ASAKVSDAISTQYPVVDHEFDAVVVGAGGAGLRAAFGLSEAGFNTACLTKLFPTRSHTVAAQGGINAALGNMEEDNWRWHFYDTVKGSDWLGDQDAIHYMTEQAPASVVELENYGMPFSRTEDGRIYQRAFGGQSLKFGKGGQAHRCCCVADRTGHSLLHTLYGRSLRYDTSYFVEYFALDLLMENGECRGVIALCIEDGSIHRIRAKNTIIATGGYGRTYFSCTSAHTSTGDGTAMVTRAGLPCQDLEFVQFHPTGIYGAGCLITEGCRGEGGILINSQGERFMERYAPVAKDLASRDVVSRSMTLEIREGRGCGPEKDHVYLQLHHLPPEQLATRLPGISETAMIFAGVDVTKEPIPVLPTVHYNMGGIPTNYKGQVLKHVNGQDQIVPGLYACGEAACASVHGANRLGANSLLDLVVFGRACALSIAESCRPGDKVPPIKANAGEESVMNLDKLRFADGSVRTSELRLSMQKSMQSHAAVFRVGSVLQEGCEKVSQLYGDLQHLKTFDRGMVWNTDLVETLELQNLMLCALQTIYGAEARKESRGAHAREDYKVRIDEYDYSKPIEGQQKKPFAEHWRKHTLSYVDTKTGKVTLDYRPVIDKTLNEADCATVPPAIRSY
# T1 sequence (P21913 31-282): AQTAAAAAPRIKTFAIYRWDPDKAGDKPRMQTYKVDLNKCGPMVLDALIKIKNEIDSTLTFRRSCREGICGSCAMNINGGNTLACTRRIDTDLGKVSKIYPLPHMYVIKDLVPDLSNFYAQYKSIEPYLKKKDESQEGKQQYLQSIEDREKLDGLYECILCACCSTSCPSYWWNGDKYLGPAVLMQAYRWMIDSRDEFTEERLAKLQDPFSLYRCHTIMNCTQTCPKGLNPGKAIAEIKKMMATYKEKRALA
# T1 sequence (Q641Z9 1-169): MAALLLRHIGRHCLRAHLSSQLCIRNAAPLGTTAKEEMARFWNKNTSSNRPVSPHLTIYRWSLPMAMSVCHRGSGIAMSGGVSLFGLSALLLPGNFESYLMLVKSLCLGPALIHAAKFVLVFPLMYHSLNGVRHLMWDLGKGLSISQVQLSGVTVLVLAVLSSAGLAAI
# T1 sequence (Q6PCT8 57-159): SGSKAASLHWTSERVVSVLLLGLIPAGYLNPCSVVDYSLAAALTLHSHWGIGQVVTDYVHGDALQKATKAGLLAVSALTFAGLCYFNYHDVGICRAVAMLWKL
structure (smiles),measurement,setting,value
CCc1cc2c(cc1N1CCC(N3CCOCC3)CC1)C(C)(C)c1[nH]c3cc(C#N)ccc3c1C2=O [Alectinib],State 3 respiration driven by succinate at 1XCmax,[1],0
same,State 4 respiration driven by succinate at 1XCmax,[1],0
same,State 3 respiration driven by succinate at 2.5XCmax,[1],0
same,State 4 respiration driven by succinate at 2.5XCmax,[1],0
same,State 3 respiration driven by succinate at 5XCmax,[1],0
same,State 4 respiration driven by succinate at 5XCmax,[1],0
same,State 3 respiration driven by succinate at 10XCmax,[1],0
same,State 4 respiration driven by succinate at 10XCmax,[1],0
same,State 3 respiration driven by succinate at 20XCmax,[1],0
same,State 4 respiration driven by succinate at 20XCmax,[1],0
same,RCC I at 10XCmax,RCC I,0
same,RCC activity I,RCC I; [9],89.39 ± 2.98 % of control
same,RCC I at 20XCmax,"RCC I; 20XCmax, DMSO-treated = 100",89.39±2.98
same,RCC II at 1.0XCmax,RCC II,0
same,RCC II at 2.5XCmax,RCC II,0
same,RCC II at 5XCmax,RCC II,0
same,RCC II at 10XCmax,RCC II,0
same,RCC II at 20XCmax,RCC II,0
same,RCC activity III,RCC III; [9],116.05 ± 4.72 % of control
same,RCC activity IV,RCC IV; [9],101.46 ± 1.66 % of control
same,RCC V at 5XCmax,RCC V; DMSO treated samples set as 1,0
same,RCC activity V,RCC V; [9],106.30 ± 11.74 % of control
same,MMP measured by Rhodamine 123 at 1XCmax,[2],0
same,MMP measured by Rhodamine 123 at 2.5XCmax,[2],0
same,MMP measured by Rhodamine 123 at 5XCmax,[2],0
same,MMP measured by Rhodamine 123 at 10XCmax,[2],0
same,MMP measured by Rhodamine 123 at 20XCmax,[2],0
same,Swelling 1XCmax,[3],0
same,Swelling 2.5XCmax,[3],0
same,Swelling 5XCmax,[3],0
same,Swelling 10XCmax,[3],0
same,Swelling 20XCmax,[3],0
same,DMSO stock for 50 Cmax,"[4]; solubility in DMSO, stock for 50 Cmax",not soluble
same,DMSO stock for 100 Cmax,"[4]; solubility in DMSO, stock for 100 Cmax",not soluble
same,Cytochrome c release 1XCmax,[5],0
same,Cytochrome c release 2.5XCmax,[5],0
same,Cytochrome c release 5XCmax,[5],0
same,Cytochrome c release 10XCmax,[5],0
same,Cytochrome c release 20XCmax,[5],0
same,Cmax,"[6]; human therapeutic Cmax at FDA recommended dosages, ref product labeling and drug approval packages at the official FDA website",1.37 µM
same,Cmax (ng or µg/ml),"[6]; human therapeutic maximal blood concentration, ref product labeling",0.665 µg/mL
same,Cmax,"[6]; read-out: Cmax at µM, human therapeutic maximal blood concentration, ref product labeling",1.37 µM
same,ROS measured by CM-H2DCFDA at 1XCmax,[7],0
same,ROS measured by CM-H2DCFDA at 2.5XCmax,[7],0
same,ROS measured by CM-H2DCFDA at 5XCmax,[7],0
same,ROS measured by CM-H2DCFDA at 10XCmax,[7],0
same,ROS measured by CM-H2DCFDA at 20XCmax,[7],0
C=CC(=O)Nc1cc(Nc2nccc(-c3cn(C)c4ccccc34)n2)c(OC)cc1N(C)CCN(C)C.CS(=O)(=O)O [osimertinib mesylate],State 3 respiration driven by succinate at 1XCmax,[1],0
same,State 4 respiration driven by succinate at 1XCmax,[1],0
same,State 3 respiration driven by succinate at 2.5XCmax,[1],0
same,State 4 respiration driven by succinate at 2.5XCmax,[1],0
same,State 3 respiration driven by succinate at 5XCmax,[1],0
same,State 4 respiration driven by succinate at 5XCmax,[1],0
same,State 3 respiration driven by succinate at 10XCmax,[1],0
same,State 4 respiration driven by succinate at 10XCmax,[1],0
same,State 3 respiration driven by succinate at 20XCmax,[1],0
same,State 4 respiration driven by succinate at 20XCmax,[1],0
same,State 3 respiration driven by succinate at 30XCmax,[1]; 30XCmax,0
same,State 4 respiration driven by succinate at 30XCmax,[1]; 30XCmax,0
same,State 3 respiration driven by succinate at 50XCmax,[1]; 50XCmax,0
same,State 4 respiration driven by succinate at 50XCmax,[1]; 50XCmax,0
same,State 3 respiration driven by succinate at 100XCmax,[1]; 100XCmax,0
same,State 4 respiration driven by succinate at 100XCmax,[1]; 100XCmax,0
same,RCC I at 10XCmax,RCC I,0
same,RCC II at 1.0XCmax,RCC II,0
same,RCC II at 2.5XCmax,RCC II,0
same,RCC II at 5XCmax,RCC II,0
same,RCC II at 10XCmax,RCC II,0
same,RCC II at 20XCmax,RCC II,0
same,RCC II at 30XCmax,RCC II; 30XCmax,0
same,RCC II at 50XCmax,RCC II; 50XCmax,0
same,RCC II at 100XCmax,RCC II; 100XCmax,0
same,RCC III at 100XCmax,RCC III; 100XCmax,0
same,RCC IV at 50XCmax,"RCC IV; 50XCmax, DMSO treated samples set as 1, in %",0
same,RCC V at 5XCmax,RCC V; DMSO treated samples set as 1,0
same,RCC V at 50XCmax,"RCC V; 50XCmax, DMSO treated samples set as 1",0
same,MMP measured by Rhodamine 123 at 1XCmax,[2],0
same,MMP measured by Rhodamine 123 at 2.5XCmax,[2],0
same,MMP measured by Rhodamine 123 at 5XCmax,[2],0
same,MMP measured by Rhodamine 123 at 10XCmax,[2],0
same,MMP measured by Rhodamine 123 at 20XCmax,[2],0
same,MMP measured by Rhodamine 123 at 30XCmax,[2]; 30XCmax,0
same,MMP measured by Rhodamine 123 at 50XCmax,[2]; 50XCmax,0
same,MMP measured by Rhodamine 123 at 100XCmax,[2]; 100XCmax,0
same,Swelling 1XCmax,[3],0
same,Swelling 2.5XCmax,[3],0
same,Swelling 5XCmax,[3],0
same,Swelling 10XCmax,[3],0
same,Swelling 20XCmax,[3],0
same,Swelling 30XCmax,[3]; 30XCmax,0
same,Swelling 50XCmax,[3]; 50XCmax,0
same,Swelling 100XCmax,[3]; 100XCmax,0
same,note (DMSO stock),[4],50 mM will precipitate
same,Cytochrome c release 1XCmax,[5],0
same,Cytochrome c release 2.5XCmax,[5],0
same,Cytochrome c release 5XCmax,[5],0
same,Cytochrome c release 10XCmax,[5],0
same,Cytochrome c release 20XCmax,[5],0
same,Cytochrome c release 30XCmax,[5]; 30XCmax,0
same,Cytochrome c release 50XCmax,[5]; 50XCmax,0
same,Cytochrome c release 100XCmax,[5]; 100XCmax,6.58±0.09 percentage of the positive control group
same,Cmax,"[6]; human, in vivo",0.5 µM
same,Labeling for cardiotoxicity,[8],W&P: QTc Interval Prolongation; Cardiomyopathy
same,Potential for cardiotoxicity (based on labeling),[8],1
same,ROS measured by CM-H2DCFDA at 1XCmax,[7],0
same,ROS measured by CM-H2DCFDA at 2.5XCmax,[7],0
same,ROS measured by CM-H2DCFDA at 5XCmax,[7],0
same,ROS measured by CM-H2DCFDA at 10XCmax,[7],0
same,ROS measured by CM-H2DCFDA at 20XCmax,[7],0
same,ROS measured by CM-H2DCFDA at 30XCmax,[7]; 30XCmax,1.38±0.13
same,ROS measured by CM-H2DCFDA at 50XCmax,[7]; 50XCmax,1.80±0.32
same,ROS measured by CM-H2DCFDA at 100XCmax,[7]; 100XCmax,3.35±0.28
